For 34 compounds, IC50 results are on record in patent US20070179161A1, “Pyrazolopyrimidine compounds and their use in medicine” (VERNALIS (CAMBRIDGE) LIMITED., priority 2003, published 2007).

The structures appear in SMILES notation. pIC50: −log10 of the molar value. Counter-ions that a name gives are not always drawn. Some results are limits rather than exact numbers.

What all share (assay type): biochemical
For assay [1], the target named is CDK-2 enzyme, complexed with cyclin A (Homo sapiens, UniProt P24941). Kind of assay: CDK2 enzyme inhibition assay (33P phosphorylation of peptide […], filter plate). Conditions: CDK-2/cyclin A, 0.1 mM ATP, 40 min at 30° C. Summed up:
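Cyclin A–complexed CDK2 (0.4 U/ml) incubated with inhibitor, 0.03 mM peptide, 0.1 mM ATP plus 33P-γ-ATP in HEPES pH 7.5, 7.5 mM Mg acetate, 0.1 mg/ml BSA, 40 min at 30 °C. Stopped with phosphoric acid; phosphorylated peptide captured on filter plates and counted by scintillation.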

The target in another assay is T1, GST-Chk1 enzyme (Homo sapiens, UniProt O14757).
T1 sequence (O14757 1-476): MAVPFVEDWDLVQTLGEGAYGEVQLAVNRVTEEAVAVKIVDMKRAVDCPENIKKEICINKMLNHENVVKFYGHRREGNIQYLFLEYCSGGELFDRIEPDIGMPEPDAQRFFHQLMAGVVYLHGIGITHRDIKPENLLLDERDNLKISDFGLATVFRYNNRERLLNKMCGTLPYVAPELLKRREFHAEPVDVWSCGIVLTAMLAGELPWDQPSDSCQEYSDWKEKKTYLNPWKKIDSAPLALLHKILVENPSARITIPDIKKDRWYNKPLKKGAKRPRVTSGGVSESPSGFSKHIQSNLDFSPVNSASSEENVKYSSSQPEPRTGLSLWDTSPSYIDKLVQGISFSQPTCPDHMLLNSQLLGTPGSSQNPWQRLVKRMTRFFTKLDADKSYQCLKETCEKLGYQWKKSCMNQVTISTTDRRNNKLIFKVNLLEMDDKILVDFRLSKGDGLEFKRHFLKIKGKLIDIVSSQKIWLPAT
The assay is described as follows: Chk1 kinase inhibition assay (33P phosphorylation of Chktide, filter plate). Conditions: 0.01 mM ATP, 11 nM GST-Chk1, 40 minutes at 30° C.; read-out: Chk1 IC50. The essentials:
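Inhibitor and enzyme reacted 40 min at 30 °C, then stopped with 50 mM phosphoric acid. Phosphorylated peptide captured on filter plates and quantified by scintillation counting.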

For another assay, the target named is T2, PDK1 enzyme (Homo sapiens, UniProt O15530).
T2 sequence (O15530 1-556): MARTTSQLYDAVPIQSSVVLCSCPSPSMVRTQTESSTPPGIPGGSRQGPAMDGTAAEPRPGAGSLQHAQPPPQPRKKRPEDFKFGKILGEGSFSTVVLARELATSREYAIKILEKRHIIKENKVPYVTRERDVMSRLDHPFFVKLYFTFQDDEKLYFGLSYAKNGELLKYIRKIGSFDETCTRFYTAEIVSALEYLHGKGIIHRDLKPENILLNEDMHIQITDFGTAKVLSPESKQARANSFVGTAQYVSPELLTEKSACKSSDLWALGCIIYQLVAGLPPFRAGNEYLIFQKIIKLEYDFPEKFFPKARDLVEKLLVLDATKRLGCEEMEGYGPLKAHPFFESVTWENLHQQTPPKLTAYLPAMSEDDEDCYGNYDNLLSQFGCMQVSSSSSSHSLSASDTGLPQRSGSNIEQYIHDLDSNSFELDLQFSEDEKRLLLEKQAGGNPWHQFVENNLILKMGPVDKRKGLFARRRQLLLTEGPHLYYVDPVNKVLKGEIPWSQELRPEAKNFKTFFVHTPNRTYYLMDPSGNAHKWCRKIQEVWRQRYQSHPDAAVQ
Kind of assay: PDK1 kinase inhibition assay (33P phosphorylation of synthetic peptide, filter plate). Conditions: 0.01 mM ATP, 60 min at 30° C.; read-out: PDK1 IC50. Summed up: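 PDK1 and inhibitor incubated 60 min at 30° C with 0.01 mM ATP plus 33P-γ-ATP, 0.075 mM peptide, 7.5 mM Mg acetate, 0.1 mg/ml BSA in 0.05 M Tris.HCl pH 7.5. Stopped with phosphoric acid; phosphorylated peptide captured on filter plate and counted by scintillation.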

In the case of `CCN(CC)c1cc(Nc2ccc(S(=O)(=O)N(C)CCO)cc2)n2ncc(C(C)C)c2n1` [Example 51], the pIC50 in assay [1] was 6.59; on GST-Chk1 enzyme, less than 3.70; on PDK1 enzyme, less than 3.70.

Regarding `CC(C)c1cnn2c(Nc3ccc(S(=O)(=O)N(C)C)cc3)cc(OC3CCCC3)nc12` [Example 54], the negative-log IC50 (pIC50) in assay [1] was 5.88; at GST-Chk1 enzyme, less than 3.70; at PDK1 enzyme, less than 3.70.

Consider `CCOC(=O)c1cc(Nc2ccc(S(=O)(=O)N(C)C)cc2)n2ncc(C(C)C)c2n1` [Example 112], for which the pIC50 was 6.56 in assay [1], less than 3.70 at GST-Chk1 enzyme and less than 3.70 on PDK1 enzyme.

In the case of `CN(C)S(=O)(=O)c1ccc(Nc2cc(Cl)nc3c(C4CC4)cnn23)cc1` [Example 127], the negative-log IC50 (pIC50) is 8.30 in assay [1], less than 3.70 at GST-Chk1 enzyme and 4.53 at PDK1 enzyme.

Regarding `CC(C)c1cnn2c(Nc3ccc(S(=O)(=O)N(C)C)cc3)cc(N[C@H]3CC[C@H](NS(C)(=O)=O)CC3)nc12` [Example 126], the figures for the negative-log IC50 (pIC50) (in assay [1]; on GST-Chk1 enzyme; on PDK1 enzyme) were 7.14, less than 3.70 and 4.46, respectively.

Turning to `CC(=O)N[C@H]1CC[C@H](Nc2cc(Nc3ccc(S(=O)(=O)N(C)C)cc3)n3ncc(C(C)C)c3n2)CC1` [Example 79], the pIC50 in assay [1] is 7.18; on GST-Chk1 enzyme it was less than 3.70; at PDK1 enzyme, less than 3.70.

Regarding `CC(C)c1cnn2c(Nc3ccc(S(C)(=O)=O)cc3)ccnc12` [Example 38], the negative logarithm of the IC50 (pIC50) in assay [1] is 6.50; on GST-Chk1 enzyme, less than 3.70; at PDK1 enzyme, less than 3.70.

As for `CN(C)S(=O)(=O)c1ccc(Nc2cc(N[C@H]3CC[C@H](N)CC3)nc3c(-c4ccccc4)cnn23)cc1` [Example 163], the pIC50 was 5.00 in assay [1], 5.82 at GST-Chk1 enzyme and 5.22 at PDK1 enzyme.

Turning to `N[C@H]1CC[C@H](Nc2cc(Nc3ccc(Oc4ccccc4)cc3)n3ncc(Cl)c3n2)CC1` [Example 187], the pIC50 was 7.27 in assay [1], 5.70 at GST-Chk1 enzyme and 5.70 on PDK1 enzyme.

`CC(C)c1cnn2c(Nc3ccc(S(=O)(=O)N(C)C)cc3)cc(OCC3CCCN3C)nc12` (stereo not drawn) [Example 65]: the pIC50 is 5.96 in assay [1], less than 3.70 at GST-Chk1 enzyme and less than 3.70 at PDK1 enzyme.

As to `CC(C)c1cnn2c(Nc3ccc(S(=O)(=O)N(C)C)cc3)cc(C(=O)NCCN)nc12` [Example 118], the figures for the pIC50 (in assay [1]; on GST-Chk1 enzyme; at PDK1 enzyme) were 5.17, 4.43 and less than 3.70, respectively.

For `CCNc1cc(Nc2ccc(S(=O)(=O)N(C)C)cc2)n2ncc(C(C)C)c2n1` [Example 108], the negative logarithm of the IC50 (pIC50) is 5.50 in assay [1], less than 3.70 at GST-Chk1 enzyme and less than 3.70 at PDK1 enzyme.

With `CC(C)c1cnn2c(Nc3ccc(S(=O)(=O)N(C)C)cc3)cc(N(C)CCCN(C)C)nc12` [Example 74], the pIC50 in assay [1] is 5.14; at GST-Chk1 enzyme, 4.73; at PDK1 enzyme, less than 3.70.

Turning to `CC(C)c1cnn2c(Nc3ccc(S(=O)(=O)N(C)C)cc3)cc(N[C@H]3CC[C@H](O)CC3)nc12` [Example 101], the pIC50 is 7.62 in assay [1], less than 3.70 at GST-Chk1 enzyme and 5.42 at PDK1 enzyme.

Regarding `CCc1cnn2c(Nc3ccc(S(C)(=O)=O)cc3)cc(OCC(C)C)nc12` [Example 44], the values for the pIC50 (in assay [1]; at GST-Chk1 enzyme; at PDK1 enzyme) were 6.75, less than 3.70 and 4.10, respectively.

As to `CN(C)S(=O)(=O)c1ccc(Nc2cc(N[C@H]3CC[C@H](N)CC3)nc3c(C4CCCC4)cnn23)cc1` [Example 167], the figures for the pIC50 (in assay [1]; on GST-Chk1 enzyme; on PDK1 enzyme) were 8.40, 6.14 and 3.77, respectively.

For `CCN(CC)C(=O)COc1cc(Nc2ccc(S(=O)(=O)N(C)C)cc2)n2ncc(C(C)C)c2n1` [Example 88], the pIC50 in assay [1] is 6.38; at GST-Chk1 enzyme, less than 3.70; on PDK1 enzyme, less than 3.70.

Turning to `Cc1cccc(-c2cc(Nc3ccc(S(=O)(=O)Nc4ccccn4)cc3)n3nccc3n2)c1` [Example 18], the pIC50 is 6.02 in assay [1], 4.28 on GST-Chk1 enzyme and less than 3.70 on PDK1 enzyme.

In the case of `NC(=O)c1ccc(Nc2cc(N[C@H]3CC[C@@H](N)CC3)nc3c(Br)cnn23)cc1` [Example 165], the values for the negative-log IC50 (pIC50) (in assay [1]; on GST-Chk1 enzyme; on PDK1 enzyme) were 7.59, 6.21 and 5.92, respectively.

For `CC(C)c1cnn2c(Nc3ccc(S(C)(=O)=O)cc3)cc(N(C)CCO)nc12` [Example 59], the pIC50 in assay [1] was 6.11; on GST-Chk1 enzyme it was less than 3.70; at PDK1 enzyme, less than 3.70.

As for `CC(C)c1cnn2c(Nc3ccc(S(=O)(=O)N(C)C)cc3)cc(C(=O)NCCN(C)C)nc12` [Example 122], the negative-log IC50 (pIC50) is 5.50 in assay [1], less than 3.70 at GST-Chk1 enzyme and less than 3.70 at PDK1 enzyme.

`CN(C)S(=O)(=O)c1ccc(Nc2cc(N[C@@H]3CCCC[C@@H]3N)nc3c(Br)cnn23)cc1` [Example 138]: the negative-log IC50 (pIC50) is 6.25 in assay [1], 6.01 on GST-Chk1 enzyme and less than 4.30 at PDK1 enzyme.

In the case of `Fc1ccc(Nc2cc(-c3ccccc3)nc3ccnn23)cc1` [Example 1, 5-Phenyl-7-(4-fluorophenylamino)pyrazolo[1,5-a]pyrimidine hydrochloride], the negative-log IC50 (pIC50) in assay [1] is 5.22; on GST-Chk1 enzyme, less than 3.70; at PDK1 enzyme, less than 3.70.

As for `COc1ccc(CNc2cc(-c3ccsc3)nc3ccnn23)cc1` [Example 8], the negative-log IC50 (pIC50) in assay [1] was 5.12; on GST-Chk1 enzyme, less than 3.70; on PDK1 enzyme it was less than 3.70.

For `N[C@H]1CC[C@H](Nc2cc(Nc3ccc(Sc4cccs4)cc3)n3ncc(Cl)c3n2)CC1` [Example 193], the pIC50 in assay [1] is 7.33; on GST-Chk1 enzyme it was 5.83; on PDK1 enzyme, 5.54.

As to `CC(C)COc1cc(Nc2ccc(S(=O)(=O)N(C)CCN(C)C)cc2)n2ncc(C(C)C)c2n1` [Example 72], the pIC50 was 5.89 in assay [1], 5.08 at GST-Chk1 enzyme and less than 3.70 on PDK1 enzyme.

Regarding `CC(C)c1cnn2c(Nc3ccc(S(=O)(=O)N(C)C)cc3)cc(N3CCC(CN)CC3)nc12` [Example 95], the pIC50 in assay [1] was 5.73; at GST-Chk1 enzyme, 4.60; at PDK1 enzyme, 4.19.

With `CC(C)c1cnn2c(Nc3ccc(S(=O)(=O)N(C)C)cc3)cc(N3CCC(C(N)=O)CC3)nc12` [Example 73], the results for the negative logarithm of the IC50 (pIC50) (in assay [1]; at GST-Chk1 enzyme; on PDK1 enzyme) were 5.83, less than 3.70 and less than 3.70, respectively.

As for `CCN(CC)[C@H]1CC[C@H](Nc2cc(Nc3ccc(S(=O)(=O)N(C)C)cc3)n3ncc(C(C)C)c3n2)CC1` [Example 100], the negative logarithm of the IC50 (pIC50) in assay [1] was 7.04; at GST-Chk1 enzyme, 4.53; at PDK1 enzyme it was 4.52.

In the case of `CC1(C)CC(Nc2cc(Nc3ccc(S(=O)(=O)Nc4nccs4)cc3)n3ncc(Br)c3n2)CC(C)(C)N1` [Example 166], the pIC50 in assay [1] is 4.77; on GST-Chk1 enzyme it was 4.77; on PDK1 enzyme it was 5.67.

As for `Cc1cccc(-c2cc(NCc3ccncc3)n3nccc3n2)c1` [Example 7], the negative logarithm of the IC50 (pIC50) in assay [1] was 5.14; at GST-Chk1 enzyme, less than 3.70; on PDK1 enzyme, less than 3.70.

Take `CNS(=O)(=O)c1ccc(Nc2cc(Cl)nc3c(C(C)C)cnn23)cc1` [Example 46]: the figures for the negative-log IC50 (pIC50) (in assay [1]; on GST-Chk1 enzyme; at PDK1 enzyme) were 7.12, less than 3.70 and 3.96, respectively.

On to `CC(C)c1cnn2c(Nc3ccc(S(=O)(=O)N(C)C)cc3)cc(N[C@H]3CC[C@H](NC(=O)CN(C)C)CC3)nc12` [Example 86], for which the negative logarithm of the IC50 (pIC50) in assay [1] was 7.52; on GST-Chk1 enzyme, less than 3.70; at PDK1 enzyme, less than 3.70.

In the case of `CC(C)COc1cc(Nc2ccc(S(C)(=O)=O)cc2)n2ncc(C(C)C)c2n1` [Example 41], the results for the pIC50 (in assay [1]; at GST-Chk1 enzyme; on PDK1 enzyme) were 5.92, less than 3.70 and less than 3.70, respectively.
